The source of these data is ChEMBL document CHEMBL3217553, “Binding properties and biological characterization of new sugar-derived Ras ligands” (Medchemcomm, 2011).

The source made the active and inactive calls. The calls are words filed in the database; no cut-off is given here.

The IC50 is the midpoint of a concentration-inhibition curve. In general, Kd refers to the constant that tells how readily two partners part at equilibrium.

Series [1] is described as follows: Inhibition of cell proliferation in mouse NIH/3T3 cells after 24 to 72 hrs by coulter counting analysis. The format is cell-based. As to conditions: nih3t3.
The subject of series [2] is NIH3T3. Nature of the series: Inhibition of cell proliferation in mouse NIH/3T3 cells expressing K-RAS at 100 uM after 24 to 72 hrs by coulter counting analysis. Type of series: functional, cell-based.
Series [3] in a line: Inhibition of cell proliferation in mouse NIH/3T3 cells at 100 uM after 24 to 72 hrs by coulter counting analysis. As to conditions: nih3t3, 100 µM. Type of series: cell-based.
For series [4], the target named is T1, GTPase HRas (Homo sapiens, UniProt P01112). Nature of the series: Inhibition of recombinant N-terminal His-tagged H-Ras (unknown origin) expressed in Escherichia coli M15 assessed as inhibition of GEF-mediated nucleotide exchange after 300 secs by luminescence spectrophotometry.
Target sequence in this assay (P01112 whole entry): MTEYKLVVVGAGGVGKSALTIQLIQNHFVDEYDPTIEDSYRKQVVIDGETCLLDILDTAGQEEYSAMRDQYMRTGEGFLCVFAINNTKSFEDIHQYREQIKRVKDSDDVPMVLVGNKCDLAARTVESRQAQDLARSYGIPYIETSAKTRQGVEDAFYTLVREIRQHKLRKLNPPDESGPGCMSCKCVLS
The target of series [5] is T1, GTPase HRas. Kind of series: Binding affinity to [15N]-H-Ras (1 to 166) (unknown origin) by NMR spectrometry.
Target sequence in this assay (P01112 whole entry): as above
Series [6] relates to NIH3T3. Kind of series: Inhibition of cell proliferation in mouse NIH/3T3 cells expressing K-RAS after 24 to 72 hrs by coulter counting analysis. The format is functional, cell-based.
The species entered for a further series is Mus musculus. Kind of series: Inhibition of Ras in mouse NIHRAS cells assessed as reduction of phosphorylated MAPK level at 250 uM after 24 hrs by sandwich ELISA. Type of series: cell-based. (In an ELISA, binding on a coated surface is turned into a signal by an enzyme label.)
The target in series [7] is T1, GTPase HRas. Kind of series: Inhibition of recombinant N-terminal His-tagged H-Ras (unknown origin) expressed in Escherichia coli M15 assessed as inhibition of human Sos1-mediated nucleotide exchange after 300 secs by luminescence spectrophotometry.

Turning to `OC[C@H]1O[C@@H](O[C@H]2[C@H](O)[C@@H](O)C(N(Cc3ccc(O)c(O)c3)OCc3ccccc3)O[C@@H]2CO)[C@H](O)[C@@H](O)[C@H]1O` (stereo partly drawn), the “inhibition (INH)” value in series [1] is reported as “Dose-dependent effect”. For the same compound, the inhibition result with NIH3T3 [2] is “Active”. For the same compound, in series [3], the Activity result is “Toxic”. In addition, the IC50 at GTPase HRas [4] amounted to 100 µM. The compound also showed a dissociation constant Kd on GTPase HRas [5] of 7.8 µM. In addition, in the series on NIH3T3 [6], the inhibition entry was “Dose-dependent effect”.

On to `Oc1ccc(CNOCc2ccccc2)cc1O`, for which the IC50 at GTPase HRas [4] was found to be 320 µM. This compound returned a Kd at GTPase HRas [5] of 21.4 µM.

With `OC[C@H]1OC(N(Cc2ccc(O)c(O)c2)OCc2ccccc2)[C@H](O)[C@@H](O)[C@@H]1O` (stereo partly drawn), the “inhibition (INH)” value in series [1] is given as “Dose-dependent effect”. Further, the inhibition result with NIH3T3 [2] is “Active”. Also, the Activity entry in series [3] is “Toxic”. For the same compound, the IC50 on GTPase HRas [4] came to 80 µM. This compound also yielded a Kd at GTPase HRas [5] of 9.5 µM. Besides, the inhibition result in the series with NIH3T3 [6] is “Dose-dependent effect”.

Take `CC(=O)N[C@H]1C(N(Cc2ccc(O)c(O)c2)OCc2ccccc2)O[C@H](CO)[C@@H](O)[C@@H]1O` (stereo partly drawn): the “inhibition (INH)” value in series [1] is given as “Dose-dependent effect”. Moreover, the inhibition entry in the series on NIH3T3 [2] and in the series listed under Mus musculus was “Active” throughout. For the same compound, the Activity entry in series [3] was “Toxic”. For the same compound, the IC50 at GTPase HRas [4] was determined as 80 µM; at GTPase HRas [7], 122 µM. For the same compound, the inhibition result at GTPase HRas [7] and in the series with NIH3T3 [6] was “Dose-dependent effect” in each case. Besides, at GTPase HRas [5], the affinity, expressed as Kd, was 5.5 µM.
